# Experimental data: patent US20100099631A1, “Novel Use” (priority 2006, published 2010)
# Like-named read-outs stand apart in the source and are kept apart here.
# Experiments:
# [1] = Plasma glucose and insulin concentrations during 4 hr recovery after glycogen-depleting exercise; format: in vivo, human (trained cyclists)
# Protocol: (§1) Eight trained cyclists participated in a study which was approved by the Ethics Committee of RMIT University, Melbourne, Australia. Each subject participated in two experimental trials separated by 7 to 10 days. Trials were randomised and double-blind. Approximately 12 to 14 hours before each trial, the subjects reported to the laboratory to undertake 90 minutes of intense cycling (repeated sprints) to deplete muscle glycogen stores. The subjects were then fed a standardised low carbohydrate meal (60% of energy from fat) and had to refrain from solid feeding for the following 12 to 14 hours. During this period water was allowed ad libitum.
# (§2) The next morning, subjects reported to the laboratory between 0600 and 0700 hours. After a rest period of 10 minutes, an indwelling canula was inserted into the right forearm and a resting blood sample taken. Local anaesthesia was applied to the subjects skin to enable subcutaneous tissue and fascia of the vastus lateralis of the subjects right leg in preparation for muscle biopsies.
# (§3) After biopsy preparation, a bout of exhaustive exercise (submaximal continuous cycling) was undertaken to further deplete muscle glycogen stores. The exhaustive cycling protocol has been previously described by McInerney et al. (McInerney P., Lessard S. J., Burke L. M., Coffey V. G., Lo Giudice S. L., Southgate R. J., Hawley J. A. Failure to repeatedly supercompensate muscle glycogen stores in highly trained men. Med. Sci. Sports Excer. 37:404-411, 2005). During exercise the subjects were allowed to drink water ad libitum and were fan-cooled.
# (§4) Laboratory conditions were standardised for the tests with 50% relative humidity and a temperature of 20° C. Immediately on completion of the exercise and while subjects remained seated on the cycle ergometer, a muscle biopsy was taken and frozen within 15 seconds of the last muscle contraction. After the biopsy, subjects dismounted the ergometer and rested in a supine position. During one trial, subjects were fed 1 g/kg body mass (BM) of carbohydrate immediately upon cessation of exercise and thereafter 1 g/kg BM of carbohydrate after 60, 120 and 180 minutes of recovery (a total of 4 g/kg BM carbohydrate). In the second trial, subjects followed the same carbohydrate ingestion regimen but in addition consumed 4 mg/kg BM of caffeine immediately upon cessation of the exercise and then after 120 minutes during recovery. Blood samples were taken at regular intervals throughout the recovery period (0, 30, 60, 90, 120, 180 and 240 minutes). Muscle biopsies were taken immediately after exercise and after 1 and 4 hr of recovery. All muscle samples were stored at −80° C. until analysis.
# (§5) Blood samples were analysed for plasma glucose and insulin concentrations at rest, and at regular intervals during recovery. The protocols for blood analysis are routine and have been described previously ((McInerney P., Lessard S. J., Burke L. M., Coffey V. G., Lo Giudice S. L., Southgate R. J., Hawley J. A. Failure to repeatedly supercompensate muscle glycogen stores in highly trained men. Med. Sci. Sports Excer. 37:404-411, 2005). Plasma caffeine levels were analysed by high-performance liquid chromatography. Muscle samples were analysed for glycogen content immediately after exercise and after 1 and 4 hours of recovery.
# muscle glucose oxidation = settings: co-ingestion of caffeine and glucose during exercise; cited from earlier work
# [2] = Plasma caffeine concentration by HPLC during recovery after exercise; format: in vivo, human (trained cyclists); settings: for concentration at 1 h / concentration at 4 h: 4 mg/kg BM
# Protocol: as §1, §4, §5
# muscle glycogen = experiment: Muscle glycogen content and resynthesis rate (vastus lateralis biopsies) after exhaustive exercise; format: in vivo, human (trained cyclists); settings: for Muscle Glycogen Resynthesis Rate: caffeine with carbohydrate
# Protocol: as §1, §2, §3, §4, §5
# [3] = 0 hr, immediately post exercise
# [4] = 0.5 hr recovery, caffeine 4 mg/kg BM at 0 and 120 min with carbohydrate 1 g/kg BM hourly
# [5] = 1 hr recovery, caffeine 4 mg/kg BM at 0 and 120 min with carbohydrate 1 g/kg BM hourly
# [6] = 1.5 hr recovery, caffeine 4 mg/kg BM at 0 and 120 min with carbohydrate 1 g/kg BM hourly
# [7] = 2 hr recovery, caffeine 4 mg/kg BM at 0 and 120 min with carbohydrate 1 g/kg BM hourly
# [8] = 3 hr recovery, caffeine 4 mg/kg BM at 0 and 120 min with carbohydrate 1 g/kg BM hourly
# [9] = 4 hr recovery, caffeine 4 mg/kg BM at 0 and 120 min with carbohydrate 1 g/kg BM hourly
# [10] = rest, before exercise and ingestion
smiles,measurement,setting,value
"Cn1c(=O)c2c(ncn2C)n(C)c1=O [Caffeine, caffeine]",Plasma Glucose,[1]; [3],3.62 mmol/L
same,Plasma Insulin,[1]; [3],4.17 uU/mL
same,Plasma Glucose,[1]; [4],6.06 mmol/L
same,Plasma Insulin,[1]; [4],30.17 uU/mL
same,Plasma Glucose,[1]; [5],6.29 mmol/L
same,Plasma Insulin,[1]; [5],29.23 uU/mL
same,Plasma Glucose,[1]; [6],5.95 mmol/L
same,Plasma Insulin,[1]; [6],46.33 uU/mL
same,Plasma Glucose,[1]; [7],5.58 mmol/L
same,Plasma Insulin,[1]; [7],46.02 uU/mL
same,Plasma Glucose,[1]; [8],5.24 mmol/L
same,Plasma Insulin,[1]; [8],68.53 uU/mL
same,Plasma Glucose,[1]; [9],5.23 mmol/L
same,Plasma Insulin,[1]; [9],46.91 uU/mL
same,area under the insulin versus time curve compared to carbohydrate alone,"[1]; caffeine with carbohydrate, 4 hr recovery, P<0.05",significantly greater
same,Plasma Glucose,[1]; [10],4.04 mmol/L
same,Plasma Insulin,[1]; [10],9.36 uU/mL
same,increase in muscle glucose oxidation,muscle glucose oxidation,26%
same,concentration at 0 h,"[2]; human, plasma, oral, 0 hr, immediately post exercise",0 µM
same,concentration at 1 h,"[2]; human, plasma, oral, 1 hr recovery, oral caffeine 4 mg/kg BM at 0 and 120 min with carbohydrate, read-out: Plasma caffeine concentration",31.5 µM
same,concentration at 4 h,"[2]; human, plasma, oral, 4 hr recovery, oral caffeine 4 mg/kg BM at 0 and 120 min with carbohydrate, read-out: Plasma caffeine concentration",77.9 µM
same,concentration at 1 h,"[2]; human, plasma, oral, after 1 hr, carbohydrate and caffeine, read-out: plasma caffeine levels",30 µM
same,concentration at 4 h,"[2]; human, plasma, oral, after 4 hr, carbohydrate and caffeine, read-out: plasma caffeine levels",~80 µM
same,Plasma caffeine concentration,[2]; [10],0.00 µM
same,Muscle Glycogen Resynthesis Rate,muscle glycogen; 0-1 hr of recovery,63.52 mm/Kg · hr · dm
same,Muscle Glycogen Content,muscle glycogen; [3],76 mmol/Kg · dm
same,Muscle Glycogen Content,muscle glycogen; [5],149 mmol/Kg · dm
same,Muscle Glycogen Resynthesis Rate,muscle glycogen; 1 hr-4 hr of recovery,57.69 mm/Kg · hr · dm
same,Muscle Glycogen Content,muscle glycogen; [9],313 mmol/Kg · dm
same,Muscle Glycogen Content,muscle glycogen; after 1 hr of recovery,149±18 mmol/kg d.w
same,increase of muscle glycogen content,"muscle glycogen; after 1 hr of recovery, vs exhaustion",~80%
same,muscle glycogen levels,"muscle glycogen; after 4 hr of recovery, co-ingestion of caffeine with CHO, P<0.001 vs placebo",313±26 mmol/kg d.w.
same,muscle glycogen levels at exhaustion,"muscle glycogen; at exhaustion, before ingestion",76 ± 9 mmol/kg
same,"rates of muscle glycogen synthesis, higher than PL (carbohydrate alone)",muscle glycogen; from 1-4 hr of recovery,66%
same,rates of muscle glycogen synthesis,"muscle glycogen; from 1-4 hr of recovery, P<0.05 vs PL",57.7 ± 7.6 mmol/kg/h
same,"average rate of resynthesis, higher than PL (carbohydrate alone)",muscle glycogen; over the 4 hours of recovery,66%
same,average rate of resynthesis,"muscle glycogen; over the 4 hours of recovery, P<0.05 vs PL",57.71 ± 7.6 mmol/kg/h
